# Literature values, collected in article PMC8812516 (Proceedings of the National Academy of Sciences of the …, 2022).
# Test system: Shaker-IR channel
substance,measurement,value
charybdotoxin,effect of inactivation on affinity of toxins,inactivation does not alter the affinity of toxins for that channel
